The target in one assay is T1, WEE1 (Homo sapiens, UniProt P30291+Q96SW2).
T1 construct: C-terminal ePL-tagged (DiscoverX, Fremont, CA) full-length WEE1 expression construct; expressed in transfected cells; host or cells: LentiX-HEK293T (Invitrogen), lentiviral transduction; co-expressing GSPT1-GN (G576N, lacking the first 158 amino acids)
Kind of assay: WEE1-ePL degradation assay (LentiX-WEE1-ePL-GSPT1-ND cells, InCELL Hunter luminescence, 4 h). The settings on record: 293T-LentiX WEE1-ePL cells; for DC50: read-out: 293T-LentiX WEE1-ePL Degradation 4 hr (EC50). It is filed as cell-based. An outline of the steps:
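First, compounds were pre-plated as 10-point, 3-fold dilutions (top 1 uM or 10 uM) with DMSO control; next, WEE1-ePL-expressing HEK293T cells were added and held 4 h at 37 °C; finally, InCELL Hunter reagent was applied for 30 min before luminescence reading. A 4PL fit gave EC50 and Ymin.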

The next assay deals with MKN45 cells. Kind of assay: MKN45 cell proliferation assay (Cell-Titer-Glo, 120 h). It is filed as cell-based. The settings on record: for EC50: Cell-Titer-Glo, read-out: MKN45 Cell Prolif. 120 hr (EC50); for MKN45 Cell Prolif. 120 hr (Ymin-Obs): minimal percent of DMSO control observed in the concentrations tested. The method in brief:
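Cells seeded at 400/well onto pre-printed 10-point half-log dilutions (top 1 or 10 uM, 0.1% DMSO final), in triplicate, and grown 120 h at 37 C. Viability by Cell-Titer-Glo luminescence, blank-subtracted and normalised to DMSO; EC50 from four-parameter logistic fit, with observed minimal % of control recorded as Ymin-obs.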

[1] abbreviates: lower limit of the fit (Ymin=0 luciferase inhibitor, Ymax DMSO control).
Setting [2] is: lower limit of the fit (0 = luciferase inhibitor, Ymax = DMSO control).
The mark [3] stands for this setting: Homo sapiens, MKN-45, 120 h, growth inhibition.

Where two headings read alike, the source gives them in different places.

The term EC50 denotes the concentration that produces a half-maximal response.

For the compound `COC[C@@H]1CN(Cc2ccc3nc(C4CCOCC4)ncc3c2)C[C@H]1Oc1ccc2c(c1)CN([C@H]1CCC(=O)NC1=O)C2=O` [(3S)-3-(5-{[(3S,4S)-4-(methoxymethyl)-1-{[2-(oxan-4-yl)quinazolin-6-yl]methyl}pyrrolidin-3-yl]oxy}-1-oxo-2,3-dihydro-1H-isoindol-2-yl)piperidine-2,6-dione], the “293T-LentiX WEE1-ePL Degradation 4 hr (Ymin)” value at WEE1 (setting [1]) turned out to be 23.11. Moreover, the DC50 at WEE1 was determined as 17.6 nM. For the same compound, the EC50 with MKN45 cells (Homo sapiens, MKN-45, 120 h) stood at 4.9 nM. For the same compound, in the assay on MKN45 cells, the “MKN45 Cell Prolif. 120 hr (Ymin-Obs)” value is 8.813.

As to `C[C@@H]1c2cc(O[C@H]3CCN(Cc4ccc5nc(N6CCOCC6)ncc5c4)C3)ccc2C(=O)N1[C@H]1CCC(=O)NC1=O` [(3S)-3-[(3R)-3-methyl-5-{[(3S)-1-{[2-(morpholin-4-yl)quinazolin-6-yl]methyl}pyrrolidin-3-yl]oxy}-1-oxo-2,3-dihydro-1H-isoindol-2-yl]piperidine-2,6-dione], the “293T-LentiX WEE1-ePL Degradation 4 hr (Ymin)” value at WEE1 (setting [1]) is reported as 40.43. In addition, the DC50 at WEE1 came out at 4.84 nM. The EC50 with MKN45 cells (Homo sapiens, MKN-45, 120 h) came to 30.8 nM. For the same compound, in the assay on MKN45 cells, the “MKN45 Cell Prolif. 120 hr (Ymin-Obs)” value is reported as 36.11.

In the case of `C[C@@H]1c2cc(O[C@H]3CCN(Cc4ccc5nc(C6CCOCC6)ccc5c4)C3)ccc2C(=O)N1[C@H]1CCC(=O)NC1=O` [(3S)-3-[(3R)-3-methyl-5-{[(3S)-1-{[2-(oxan-4-yl)quinolin-6-yl]methyl}pyrrolidin-3-yl]oxy}-1-oxo-2,3-dihydro-1H-isoindol-2-yl]piperidine-2,6-dione], the “293T-LentiX WEE1-ePL Degradation 4 hr (Ymin)” value on WEE1 (setting [1]) is given as 42.32. Moreover, the DC50 on WEE1 amounted to 2.67 nM. Further, in the assay on MKN45 cells (Homo sapiens, MKN-45, 120 h), the EC50 worked out at 17.8 nM. In addition, in the assay on MKN45 cells, the “MKN45 Cell Prolif. 120 hr (Ymin-Obs)” value turned out to be 20.63.

`C[C@H]1c2cc(O[C@H]3CCN(Cc4ccc5nc(C6CCOCC6)ccc5c4)C3)ccc2C(=O)N1[C@H]1CCC(=O)NC1=O` [(3S)-3-[(3S)-3-methyl-5-{[(3S)-1-{[2-(oxan-4-yl)quinolin-6-yl]methyl}pyrrolidin-3-yl]oxy}-1-oxo-2,3-dihydro-1H-isoindol-2-yl]piperidine-2,6-dione]: the “293T-LentiX WEE1-ePL Degradation 4 hr (Ymin)” value on WEE1 (setting [1]) came to 49.25. The DC50 at WEE1 was determined as 212 nM. For the same compound, the EC50 with MKN45 cells (Homo sapiens, MKN-45, 120 h) turned out to be 374 nM. The “MKN45 Cell Prolif. 120 hr (Ymin-Obs)” value in the assay with MKN45 cells was determined as 86.82.

In the case of `CN(C(=O)C1CCOCC1)c1ccc2cc(CN3CC[C@H](Oc4ccc5c(c4)CN(C4CCC(=O)NC4=O)C5=O)C3)ccc2n1` (stereo partly drawn) [N-(6-{[(3S)-3-{[2-(2,6-dioxopiperidin-3-yl)-1-oxo-2,3-dihydro-1H-isoindol-5-yl]oxy}pyrrolidin-1-yl]methyl}quinolin-2-yl)-N-methyloxane-4-carboxamide], at WEE1 (setting [2]), the “293T-LentiX WEE1-ePL Degradation 4 hr (Ymin)” value came out at 32.5. The DC50 on WEE1 came to 5.04 nM. Further, the EC50 in the assay on MKN45 cells (setting [3]) was 3.35 nM. Moreover, the “MKN45 Cell Prolif. 120 hr (Ymin-Obs)” value in the assay with MKN45 cells is given as 6.6.

`O=C1CCC(N2Cc3cc(O[C@H]4CCN(Cc5ccc6nc(NC(=O)C7CCOCC7)ccc6c5)C4)ccc3C2=O)C(=O)N1` (stereo partly drawn) [N-(6-{[(3S)-3-{[2-(2,6-dioxopiperidin-3-yl)-1-oxo-2,3-dihydro-1H-isoindol-5-yl]oxy}pyrrolidin-1-yl]methyl}quinolin-2-yl)oxane-4-carboxamide]: on WEE1 (setting [2]), the “293T-LentiX WEE1-ePL Degradation 4 hr (Ymin)” value was determined as 29. For the same compound, the DC50 at WEE1 amounted to 1.78 nM. Further, the EC50 with MKN45 cells (setting [3]) was 2.03 nM. In the assay on MKN45 cells, the “MKN45 Cell Prolif. 120 hr (Ymin-Obs)” value was determined as 5.73.

As for `CO[C@H]1C[C@@H](c2ccc3cc(CN4CC[C@H](Oc5ccc6c(c5)CN(C5CCC(=O)NC5=O)C6=O)C4)ccc3n2)C1` (stereo partly drawn) [drawing 577, 3-(1-oxo-5-{[(3S)-1-({2-[(1s,3s)-3-methoxycyclobutyl]quinolin-6-yl}methyl)pyrrolidin-3-yl]oxy}-2,3-dihydro-1H-isoindol-2-yl)piperidine-2,6-dione], on WEE1 (setting [2]), the “293T-LentiX WEE1-ePL Degradation 4 hr (Ymin)” value turned out to be 28.27. In addition, at WEE1, the DC50 worked out at 2.09 nM. The EC50 in the assay on MKN45 cells (setting [3]) came to 2.67 nM. Further, the “MKN45 Cell Prolif. 120 hr (Ymin-Obs)” value in the assay with MKN45 cells was 7.76.

Regarding `CO[C@H]1C[C@H](c2ccc3cc(CN4CC[C@H](Oc5ccc6c(c5)CN(C5CCC(=O)NC5=O)C6=O)C4)ccc3n2)C1` (stereo partly drawn) [drawing 578, 3-(1-oxo-5-{[(3S)-1-({2-[(1r,3r)-3-methoxycyclobutyl]quinolin-6-yl}methyl)pyrrolidin-3-yl]oxy}-2,3-dihydro-1H-isoindol-2-yl)piperidine-2,6-dione], the “293T-LentiX WEE1-ePL Degradation 4 hr (Ymin)” value on WEE1 (setting [2]) was 27.12. Moreover, the DC50 at WEE1 was determined as 3.61 nM. For the same compound, the EC50 with MKN45 cells (setting [3]) was 3.3 nM. Further, the “MKN45 Cell Prolif. 120 hr (Ymin-Obs)” value in the assay on MKN45 cells is 7.412.

Take `CO[C@H]1C[C@H](c2ccc3cc(CN4CC[C@H](Oc5ccc6c(c5)CN(C5CCC(=O)NC5=O)C6=O)C4)ccc3n2)C1` (stereo partly drawn) [drawing 579, 3-(1-oxo-5-{[(3S)-1-({2-[(1r,3r)-3-methoxycyclobutyl]quinolin-6-yl}methyl)pyrrolidin-3-yl]oxy}-2,3-dihydro-1H-isoindol-2-yl)piperidine-2,6-dione]: the “293T-LentiX WEE1-ePL Degradation 4 hr (Ymin)” value on WEE1 (setting [2]) worked out at 21.76. The DC50 on WEE1 came out at 12.8 nM. The EC50 in the assay on MKN45 cells (growth inhibition) came out at 4.89 nM. For the same compound, the “MKN45 Cell Prolif. 120 hr (Ymin-Obs)” value in the assay on MKN45 cells was determined as 8.615.

On to `CO[C@H]1C[C@@H](c2ccc3cc(CN4CC[C@H](Oc5ccc6c(c5)CN(C5CCC(=O)NC5=O)C6=O)C4)ccc3n2)C1` (stereo partly drawn) [drawing 581, 3-(1-oxo-5-{[(3S)-1-({2-[(1s,3s)-3-methoxycyclobutyl]quinolin-6-yl}methyl)pyrrolidin-3-yl]oxy}-2,3-dihydro-1H-isoindol-2-yl)piperidine-2,6-dione], for which the “293T-LentiX WEE1-ePL Degradation 4 hr (Ymin)” value at WEE1 (setting [2]) amounted to 23.8. In addition, the DC50 on WEE1 was 5.35 nM. Further, the EC50 with MKN45 cells (growth inhibition) turned out to be 2.41 nM. Besides, the “MKN45 Cell Prolif. 120 hr (Ymin-Obs)” value with MKN45 cells came to 7.75.

(Values after patent publication US20240067632A1, “WEE1 Degrading Compounds and Uses Thereof” (Bristol-Myers Squibb Company, priority 2022, published 2024).)
